Each structure is given as a SMILES string. Activity calls are given as the source filed them.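 The calls were made as follows: active = mean IC50 for reducing PEG3 promoter reporter signal at or below a set limit, with IC50 above the limit in both counter screens; inactive = the rest, including counter screen hits.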

Test in all cases: inhibition of PEG-3 promoter-driven reporter – cell-based, HeLa, luciferase, CREF/GAPDH counter-screen panel, dose response (AID 624167)
For test [1], the target named is PEG-3 (UniProt Q6IN02). Conditions: HeLa PEG-Prom luciferase reporter, overnight, CREF/GAPDH counter-screens, mean of runs.
PEG-3 (UniProt Q6IN02), sequence (Q6IN02 whole entry, looked up): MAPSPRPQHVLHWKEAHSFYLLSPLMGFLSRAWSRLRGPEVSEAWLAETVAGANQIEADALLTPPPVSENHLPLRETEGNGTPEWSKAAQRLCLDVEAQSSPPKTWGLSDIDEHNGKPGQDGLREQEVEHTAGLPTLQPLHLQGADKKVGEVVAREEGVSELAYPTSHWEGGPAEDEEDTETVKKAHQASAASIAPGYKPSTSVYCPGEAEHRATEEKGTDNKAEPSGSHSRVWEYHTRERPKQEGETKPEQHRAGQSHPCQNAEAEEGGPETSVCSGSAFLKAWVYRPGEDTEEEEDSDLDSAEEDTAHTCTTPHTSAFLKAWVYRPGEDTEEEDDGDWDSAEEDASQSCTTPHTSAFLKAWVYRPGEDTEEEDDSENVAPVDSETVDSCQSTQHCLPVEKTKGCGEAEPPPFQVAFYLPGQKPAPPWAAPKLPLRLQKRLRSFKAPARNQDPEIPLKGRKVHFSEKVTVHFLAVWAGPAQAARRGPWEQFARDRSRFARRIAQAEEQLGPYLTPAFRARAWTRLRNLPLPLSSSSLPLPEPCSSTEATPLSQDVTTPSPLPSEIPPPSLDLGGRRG
In test [2] the test system is Rat fibroblasts (CREF). Conditions: CREF/GAPDH counter-screens.
In test [3] the test system is PEG-3. To be noted: HeLa PEG-Prom luciferase reporter, overnight, CREF/GAPDH counter-screens.
Setting [4] is: run 1, dose range 1, individual replicate IC50 per panel.
Where [5] appears, read: run 2, dose range 1, individual replicate IC50 per panel.

Consider `O=C(Nc1nc2cc3c(cc2s1)OCO3)C1=COCCO1`, for which the IC50 in test [1] is 1.97 µM; in test [2] (mean of runs), 2.29 µM; in test [2] (setting [4]), 1.92 µM; in test [2] (setting [5]), 2.66 µM; in test [3] (setting [4]) it was 1.68 µM; in test [3] (setting [5]), 2.25 µM.

Consider `CN[C@H]1C[C@H]2c3[nH]c4ccc(-c5ccc(OC)cc5)cc4c3CCN2C(=O)[C@H]1[C@H](C)O`, for which the IC50 in test [1] is 10.5 µM; in test [2] (mean of runs) it was 16.1 µM; in test [2] (setting [4]), 16.9 µM; in test [2] (setting [5]), 15.3 µM; in test [3] (setting [4]), 12.5 µM; in test [3] (setting [5]), 8.39 µM.

`Cc1cc(C(=O)COC(=O)c2ccccc2O)c(C)n1CC1CCCO1` (configuration not stated): the IC50 entry in test [1] was “inactive”. For the same molecule, the IC50 is 3.39 µM in test [2] (mean of runs); 3.34 µM in test [2] (setting [4]); 3.44 µM in test [2] (setting [5]); 1.24 µM in test [3] (setting [4]); above 100 µM in test [3] (setting [5]).

For `O=C(CNCCC1=CCCCC1)Nc1ccc(N2CCCCCC2)cc1`, the IC50 in test [1] was 9.98 µM; in test [2] (mean of runs), 16.6 µM; in test [2] (setting [4]), 16.5 µM; in test [2] (setting [5]), 16.8 µM; in test [3] (setting [4]) it was 10.6 µM; in test [3] (setting [5]) it was 9.37 µM.

Turning to `CC(C)CC(=NNC(=O)c1ccncc1)c1cc(Cl)ccc1O`, the IC50 in test [1] is 3.41 µM; in test [2] (mean of runs), 10.3 µM; in test [2] (setting [4]) it was 8.21 µM; in test [2] (setting [5]), 12.3 µM; in test [3] (setting [4]), 3.35 µM; in test [3] (setting [5]), 3.46 µM.

Turning to `Oc1c(Br)cc(Br)c2cccnc12`, the IC50 in test [1] was 6.72 µM; in test [2] (mean of runs), 9.01 µM; in test [2] (setting [4]), 11.8 µM; in test [2] (setting [5]), 6.27 µM; in test [3] (setting [4]), 4.4 µM; in test [3] (setting [5]), 9.05 µM.

As for `Cc1ccc(C(=O)CN2C(=O)c3ccccc3S2(=O)=O)cc1`, the IC50 was 6.27 µM in test [1]; 8.72 µM in test [2] (mean of runs); 8.77 µM in test [2] (setting [4]); 8.68 µM in test [2] (setting [5]); 6.12 µM in test [3] (setting [4]); 6.43 µM in test [3] (setting [5]).

As for `c1ccc(-c2noc(-c3ccc4c(c3)OCO4)n2)nc1`, the IC50 in test [1] was 0.818 µM; in test [2] (mean of runs) it was 0.694 µM; in test [2] (setting [4]), 0.309 µM; in test [2] (setting [5]) it was 1.08 µM; in test [3] (setting [4]), 0.622 µM; in test [3] (setting [5]), 1.01 µM.

Consider `Cc1cc(C(=O)COC(=O)c2ccccc2O)c(C)n1Cc1cccs1`, for which the IC50 in test [1] is 3.32 µM; in test [2] (mean of runs), 1.36 µM; in test [2] (setting [4]) it was 0.812 µM; in test [2] (setting [5]) it was 1.9 µM; in test [3] (setting [4]), 1.79 µM; in test [3] (setting [5]), 4.86 µM.

For the molecule `CN(C)CCCN(C(=O)c1ccc(S(=O)(=O)N2CCc3ccccc3C2)cc1)c1nc2ccc(F)cc2s1`, the IC50 in test [1] was 10 µM; in test [2] (mean of runs) it was 13.4 µM; in test [2] (setting [4]), 9.84 µM; in test [2] (setting [5]), 17 µM; in test [3] (setting [4]) it was 11.3 µM; in test [3] (setting [5]), 8.74 µM.

Take `COC(=O)c1nn(-c2ccc3c(c2)CCN3C(C)=O)cc1O`: the IC50 in test [1] is 4.81 µM; in test [2] (mean of runs), 4.48 µM; in test [2] (setting [4]), 5.01 µM; in test [2] (setting [5]), 3.95 µM; in test [3] (setting [4]) it was 3.93 µM; in test [3] (setting [5]), 5.69 µM.

With `COc1ccc(C(=O)/C=C/Nc2ccccn2)cc1`, the IC50 in test [1] was 2.6 µM; in test [2] (mean of runs), 3.61 µM; in test [2] (setting [4]), 3.45 µM; in test [2] (setting [5]), 3.77 µM; in test [3] (setting [4]), 2.02 µM; in test [3] (setting [5]) it was 3.18 µM.

Regarding `CCn1nc(C)cc1-c1nnc(Sc2ncc([N+](=O)[O-])s2)n1C`, the IC50 is 6.37 µM in test [1]; 4.87 µM in test [2] (mean of runs); 5.31 µM in test [2] (setting [4]); 4.43 µM in test [2] (setting [5]); 8.65 µM in test [3] (setting [4]); 4.09 µM in test [3] (setting [5]).

Regarding `CCOc1ccc2c(ccc(/C=C/c3cc(C)c4cccnc4c3O)[n+]2C)c1`, the IC50 in test [1] is 5.09 µM; in test [2] (mean of runs), 11.8 µM; in test [2] (setting [4]), 11.9 µM; in test [2] (setting [5]), 11.7 µM; in test [3] (setting [4]) it was 4.3 µM; in test [3] (setting [5]), 5.88 µM.

With `Clc1cccc(-c2nc(-c3ccccn3)no2)c1`, the IC50 in test [1] was 4.8 µM; in test [2] (mean of runs), 2.23 µM; in test [2] (setting [4]) it was 1.82 µM; in test [2] (setting [5]), 2.63 µM; in test [3] (setting [4]), 3.68 µM; in test [3] (setting [5]), 5.92 µM.

On to `Cc1c([N+](=O)[O-])cc(N2C(=O)C=CC2=O)cc1[N+](=O)[O-]`, for which the IC50 was 8.22 µM in test [1]; 17.2 µM in test [2] (mean of runs); 16.8 µM in test [2] (setting [4]); 17.6 µM in test [2] (setting [5]); 9.19 µM in test [3] (setting [4]); 7.25 µM in test [3] (setting [5]).

Turning to `O=C(NCCc1ccccc1F)c1ccc2c(c1)OCCO2`, the IC50 in test [1] was 0.881 µM; in test [2] (mean of runs) it was 1.18 µM; in test [2] (setting [4]), 1.07 µM; in test [2] (setting [5]) it was 1.3 µM; in test [3] (setting [4]) it was 1.02 µM; in test [3] (setting [5]) it was 0.74 µM.

For the origin of these results see PubChem BioAssay AID624167 (Sanford-Burnham Center for Chemical Genomics, 2012).
